For one data set, the system named is adult S. mansoni. The data set is described as follows: Phenotypic screen of adult S. mansoni worms, severity scores and descriptors. The format is cell-based, Schistosoma mansoni. Conditions: for Descriptors (10 µM) 1 h / Severity Scores (10 μM) 1 h / Descriptors (10 µM) 5 h / Severity Scores (10 μM) 5 h / Descriptors (10 µM) 24 h / Severity Scores (10 μM) 24 h / Descriptors (10 µM) 48 h / Severity Scores (10 μM) 48 h: adult S. mansoni; for Descriptors (10 µM) 1 h / Descriptors (10 µM) 5 h / Descriptors (10 µM) 24 h / Descriptors (10 µM) 48 h: phenotypic descriptors; for Severity Scores (10 μM) 1 h / Severity Scores (10 μM) 5 h / Severity Scores (10 μM) 24 h / Severity Scores (10 μM) 48 h: scale 0 (no activity) to 4 (maximal activity); for bioactivity against adult S. mansoni: adult schistosomes; for Severity Scores (10 μM) 1 h / Severity Scores (10 μM) 5 h / Severity Scores (10 μM) 24 h / Severity Scores (10 μM) 48 h / bioactivity against adult S. mansoni: 10 μM. From the text:
Because the schistosome parasite can present multiple and dynamic phenotypic responses to chemical insult,[16] we employ a constrained nomenclature of descriptors to describe the changes in the parasite as a function of time and concentration (e.g., motility, density, and shape; and in the case of the adult parasite, an inability to adhere to the bottom of the assay dish). These descriptors are converted into severity scores on a scale of 0 (green)–4 (severest/red) that allow for partially quantitative comparisons of compound effects.[1]−[19] […] The descriptors themselves and their respective scores are detailed in the Supporting Information, Table S1. Severity score data are presented in the results (with the corresponding descriptors detailed in the Supporting Information, Tables S2–S8), and eight new analogs developed and synthesized in support of this effort are described. Finally, absorption, distribution, metabolism and excretion (ADME) data of all compounds presented in this work are reported in the Supporting Information, Table S15.
Table S1. Descriptors and associated severity scores used for S. mansoni adults.
R (rounded or shape altered 1
On sides (adults unable to 1
Shrunk (adults are shorter 1
surface (tegument) of adults)
dfailed to create analytical method
Maintenance of the Schistosoma mansoni life cycle (NMRI isolate), the preparation of adult worms (≥ 42-
days-old), and their co-incubation with test compounds were as described.7-9 Phenotypic responses were
visually recorded using a constrained nomenclature and converted to severity scores on a scale from zero
(no activity) to 4 (maximal activity).8, 9 Use of hamsters for maintaining the S. mansoni life-cycle was
approved by the Institutional Animal Care and Use Committee of the University of California San Diego.
The human myelomonocytic cell line THP -1 was grown at 37 °C and 5% CO2 in RPMI-1640 supplemented
with 10% iFBS, 2 mM glutamate, 100 U/mL penicillin and […] streptomycin.
Drug toxicity to HepG2 cells .10 HepG2 cells line were obtained from the American Type Culture
Collection and cultured in Minimal Essential Medium (MEM) supplemented with 0.19% sodium
bicarbonate, 10% Fetal Bovine Serum, 2 mM L -glutamine, 0.1 mM MEM non-essential amino, 0.009
mg/mL insulin, 1.76 mg/mL bovine serum albumin. The viability of the cells was measured using the MTT
(thiazolyl blue reduction) method. Briefly, ninety -six-well plates were seeded with 2.5 × 10^4 cells/well in
170 ml of culture medium and incubated overnight in 5% CO 2 at 37 °C. Cells were exposed to different
experimental compounds in DMSO. After 48 hours incubation, the viability of the cells was assessed using
MTT (thiazolyl blue reduction) as a dose response assay (11 two -fold serial dilutions) to obtain a calculated
IC50 determination. 4-Azaindolo[2,1-b]quinazoline-6,12-dione is used as a toxicity positive control and
each assay plate includes the following 3 additional controls: a) background control: no cells and no drug
was added, b) target control: cells added but no drugs, and c) DMSO control: same as the target control
except the culture media contains 0.6% DMSO. Absorbance was determined in all wells using a Perkin
Elmer, Ensight plate reader. The fifty percent inhibitory concentrations (IC50’s) were determined using
GraphPad Prism nonlinear regr ession (sigmoidal dose -response, variable slope) equation .
ADME Experiment Protocols
Aqueous pH 7.4 Solubility. Compounds were dried down from 10 mM DMSO solutions using centrifugal
evaporation technique. Phosphate buffer (0.1 M pH 7.4) was added and StirStix were inserted in the glass
vials, with shaking then performed at a constant temperature of 25 °C for 20 -24 h. This step was followed
by double centrifugation with a tip wash in between, to ensure that no residues of the dried compounds
interfere. The solutions were diluted before analysis and quantification using LC/MS/MS was performed.

A short description of data set [1]: Human liver microsomal Clint. The format is in vitro ADME. Conditions: human liver microsomes, intrinsic clearance; read-out: HLM Clint.
The next data set can be described thus: Rat hepatocyte Clint. Conditions: rat hepatocytes, intrinsic clearance; read-out: RH CLint. The format is in vitro ADME.
Data set [2] is described as follows: Log D7.4 shake-flask octanol-water. It is filed as physicochemical. Conditions: pH 7.4. The method, then:
Log D7.4. Shake-flask octanol-water distribution coefficient was determined at pH 7.4 (Log D7.4). The aqueous solution used is 10 mM sodium phosphate pH 7.4 buffer. The method has been validated for Log D7.4 ranging from -2 to 5.0.
Human Plasma Protein Binding (PPB). PPB was determined using equilibrium dialysis (RED device) to separate free from bound compound. The amount of compound in plasma (10 µM initial concentration) and in dialysis buffer (pH 7.4 phosphate buffer) was measured by LC-MS/MS after equilibration at 37 °C in a dialysis chamber. The fraction unbound (fu) is reported.
Human Liver Microsomal Clint. In vitro intrinsic clearance was determined from human liver microsomes using a standard approach.11 Following incubation and preparation, the samples were analyzed using […]
Rat Hepatocyte Clint. In vitro intrinsic clearance was determined from rat hepatocytes using a standard approach.11 Following incubation and preparation, the samples were analyzed using LC/MS/MS. Refined […]
Calculated LogP and LogD values. Both LogP and LogD predictions are based on a modified version of the method12 where the predicted partition coefficients are composed of the molecules’ atomic increments.
General Chemistry. All starting materials were commercially obtained and were used without further purification, unless specified. Reaction solvents were purified by passage through alumina columns on a purification system manufactured by Innovative Technology (Newburyport, MA). NMR spectra were obtained on Varian NMR systems, operating at 400 or 500 MHz for 1 H acquisitions. LCMS analysis was performed using a Waters AllianceHT e2795 reverse phase HPLC (Waters SunFire C18 4.6 × 50 mm, 3.5 μm column), with a Waters 2996 photodiode array detector scanning from 210 nm to 600 nm, and Waters Micromass ZQ detector (electrospray ionization). Where required, final compounds were purified by preparative reverse phase HPLC (columns Waters Symmetry RP8 30 × 50 mm, 5 μm column, or OBD RP18 30 × 50 mm, 5 μm), with a single wavelength UV−visible detector and Waters Micromass ZQ (electrospray ionization).

Data set [3] is described as follows: Aqueous pH 7.4 solubility. It is filed as physicochemical. Conditions: for solubility: aqueous buffer, thermodynamic from solid, phosphate buffer pH 7.4, 25 °C, 20-24 h, read-out: aq sol (aqueous solubility).
Data set [4] can be described thus: Human plasma protein binding (equilibrium dialysis). The format is in vitro ADME. Conditions: pH 7.4, 10 µM, 37 °C, read-out: human PPB (plasma protein binding) (converted). (In equilibrium dialysis only unbound substance equilibrates across the membrane.)

SMILES strings stand for the structures. In brackets after ≈: the same amount, converted by molar mass. Entries after “also recorded” stand apart in the source; their conditions may differ. Some results are limits rather than exact numbers.

Turning to `CCCN1CCCN(c2ncc(-c3ccc4c(Nc5cnccn5)ccnc4c3)cn2)CC1` [4f], in the data set with adult S. mansoni, the “Descriptors (10 µM) 1 h” value is “none”, the “Severity Scores (10 μM) 1 h” value is listed as 0, the “Descriptors (10 µM) 5 h” value was “none” and the “Severity Scores (10 μM) 5 h” value amounted to 0. In addition, in the data set on adult S. mansoni, the “Descriptors (10 µM) 24 h” value was “none”, the “Severity Scores (10 μM) 24 h” value is 0, the “Descriptors (10 µM) 48 h” value was “none” and the “Severity Scores (10 μM) 48 h” value amounted to 0. Moreover, the microsomal CLint in data set [1] is > 300 µL/min/mg. Besides, in “Rat hepatocyte Clint”, the hepatocyte CLint stood at 32 µL/min/1e6 cells. Further, the pH-dependent lipophilicity (logD) – broadly, the decadic logarithm of the distribution of all forms, ionised or not, between an organic phase and buffer at a given pH – in data set [2] amounted to 3.3.
Regarding `COc1ccc(Nc2ccnc3cc(-c4cnc(N5CCCN(C)CC5)nc4)ccc23)cc1Cl` [5d], in the data set with adult S. mansoni, the “Severity Scores (10 μM) 1 h” value was determined as 1, the “Severity Scores (10 μM) 5 h” value amounted to 3, the “Severity Scores (10 μM) 24 h” value worked out at 4 and the “Severity Scores (10 μM) 48 h” value was found to be 4. Besides, in the data set on adult S. mansoni, the “bioactivity against adult S. mansoni” value is “severe phenotypic responses”. Moreover, in data set [3], the solubility – broadly, the concentration that dissolves in the medium under given conditions – is 6 µM (≈ 2.85 µg/mL). For the same compound, in data set [3] (relative to 3), the “decrease in aqueous solubility compared with 3” value is 7 fold. For the same compound, the microsomal CLint in data set [1] worked out at 120 µL/min/mg. Moreover, in the data set “Rat hepatocyte Clint”, the hepatocyte CLint stood at 9 µL/min/1e6 cells. The compound further came in with a log distribution coefficient (logD) in data set [2] of 2.7.
With `c1cc(-c2ccc3c(c2)ncc2c4ccccc4[nH]c32)cc(N2CCOCC2)c1` [6a], in the data set on adult S. mansoni, the “Descriptors (10 µM) 1 h” value is recorded as “none”, the “Severity Scores (10 μM) 1 h” value is listed as 0, the “Severity Scores (10 μM) 5 h” value is recorded as 1 and the “Descriptors (10 µM) 24 h” value is recorded as “none”. Further, in the data set with adult S. mansoni, the “Severity Scores (10 μM) 24 h” value is recorded as 0, the “Severity Scores (10 μM) 48 h” value is on record as 1 and the “bioactivity against adult S. mansoni” value is given as “minimal bioactivity after 5 h”. For the same compound, the solubility in data set [3] came out at 0.1 µM (≈ 0.0379 µg/mL). The microsomal CLint in data set [1] came to 57 µL/min/mg. Also, the hepatocyte CLint in “Rat hepatocyte Clint” amounted to 24 µL/min/1e6 cells. This compound showed a logD in data set [2] of 5.1.
For the compound `CN1CCCN(c2ncc(-c3ccc4c(c3)ncc3c5ccccc5[nH]c43)cn2)CC1` [6b], in the data set with adult S. mansoni, the “Descriptors (10 µM) 1 h” value is on record as “none”, the “Severity Scores (10 μM) 1 h” value is 0, the “Severity Scores (10 μM) 5 h” value worked out at 1 and the “Severity Scores (10 μM) 24 h” value is on record as 1. In the data set on adult S. mansoni, the “Severity Scores (10 μM) 48 h” value worked out at 4 and the “bioactivity against adult S. mansoni” value is “minimal bioactivity after 5 h; also recorded: potent activity after 48 h”. In addition, the solubility in data set [3] was 35 µM (≈ 14.3 µg/mL). Further, the microsomal CLint in data set [1] was found to be 110 µL/min/mg. Further, the hepatocyte CLint in the data set “Rat hepatocyte Clint” was 19 µL/min/1e6 cells.
In the case of `CCN1CCCN(c2ncc(-c3cc4nccc(Nc5cnccn5)c4cc3C)cn2)CC1` [8c], in the data set with adult S. mansoni, the “Descriptors (10 µM) 1 h” value is recorded as “none”, the “Severity Scores (10 μM) 1 h” value was 0, the “Severity Scores (10 μM) 5 h” value is recorded as 4 and the “Severity Scores (10 μM) 24 h” value is 4. Also, the “Severity Scores (10 μM) 48 h” value in the data set with adult S. mansoni came out at 4. The fraction unbound in data set [4] is 0.16. Moreover, the hepatocyte CLint in the data set “Rat hepatocyte Clint” amounted to 32 µL/min/1e6 cells. For the same compound, the logD in data set [2] was determined as 2.6.
In the case of `CCCN1CCCN(c2ncc(-c3cc4nccc(Nc5cnccn5)c4cc3C)cn2)CC1` [8d], in the data set with adult S. mansoni, the “Severity Scores (10 μM) 1 h” value was 1, the “Severity Scores (10 μM) 5 h” value is recorded as 1, the “Severity Scores (10 μM) 24 h” value was determined as 3 and the “Severity Scores (10 μM) 48 h” value was determined as 3. Besides, the “bioactivity against adult S. mansoni” value with adult S. mansoni is recorded as “bioactivity being detected after 1 h”. In addition, in data set [4], the fraction unbound was 0.12. Further, the hepatocyte CLint in the data set “Rat hepatocyte Clint” came to 35 µL/min/1e6 cells. Moreover, the logD in data set [2] came out at 3.2.
For the compound `CCN1CCCN(c2ncc(-c3ccc4c(Nc5cnccn5)ccnc4c3C)cn2)CC1` [9c], in the data set with adult S. mansoni, the “Descriptors (10 µM) 1 h” value was “none”, the “Severity Scores (10 μM) 1 h” value is 0, the “Descriptors (10 µM) 5 h” value is “none” and the “Severity Scores (10 μM) 5 h” value stood at 0. Also, in the data set on adult S. mansoni, the “Descriptors (10 µM) 24 h” value is “none”, the “Severity Scores (10 μM) 24 h” value was determined as 0, the “Descriptors (10 µM) 48 h” value is given as “none” and the “Severity Scores (10 μM) 48 h” value is listed as 0. In addition, in the data set with adult S. mansoni, the “bioactivity against adult S. mansoni” value was “no bioactivity”. Also, in data set [4], the fraction unbound was 0.12. In addition, the hepatocyte CLint in “Rat hepatocyte Clint” was 21 µL/min/1e6 cells.

Values taken from paper PMC7073886, “Structure–Bioactivity Relationships of Lapatinib Derived Analogs against Schistosoma mansoni” (ACS Medicinal Chemistry Letters, 2020).
